Broadly, the Emax is the greatest response seen or fitted, relative to the assay's reference.

22 compounds from patent publication US12503475B2 (Centessa Pharmaceuticals (UK) Limited, priority 2020, dated 2025) can be followed below.

For the experiment, the target named is T1, human orexin type 2 receptor (hOX2R) (Homo sapiens, UniProt O43614).
T1 construct: expressed in transfected cells
T1 sequence (O43614 1-444): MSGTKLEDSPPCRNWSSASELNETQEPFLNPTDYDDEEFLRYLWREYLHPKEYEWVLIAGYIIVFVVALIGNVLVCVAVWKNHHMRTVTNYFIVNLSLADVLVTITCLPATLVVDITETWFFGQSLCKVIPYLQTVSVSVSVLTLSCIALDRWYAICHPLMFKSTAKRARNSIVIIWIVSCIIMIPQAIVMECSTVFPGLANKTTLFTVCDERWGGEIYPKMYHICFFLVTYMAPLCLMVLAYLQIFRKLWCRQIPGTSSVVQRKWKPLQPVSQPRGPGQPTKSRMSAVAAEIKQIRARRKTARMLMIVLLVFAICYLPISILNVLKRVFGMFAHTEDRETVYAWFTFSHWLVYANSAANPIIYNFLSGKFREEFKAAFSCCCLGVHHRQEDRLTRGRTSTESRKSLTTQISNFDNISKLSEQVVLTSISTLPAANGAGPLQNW
The experiment in a line: Measurement of orexin type 2 receptor agonist activity (FLIPR calcium fluorescence). The settings on record: CHO cells expressing hOX2R, FLIPR calcium fluorescence; for EC50: read-out: hOx2 pEC50 (converted); for Emax: CHO, read-out: hOx2 Emax (%). Type of experiment: cell-based. In short, it runs like this: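 Agonism was read as fluorescence in cells stably expressing human OX2R. E. is the response at 10 μM relative to orexin A as full agonist (100%).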

For the compound `CS(=O)(=O)N[C@@H]1[C@H](Cc2cccc(-c3ccccc3F)c2F)N(C(=O)[C@H]2CCO2)CC12CC2` [Compound 107, N-((6S,7S)-6-((2,2′-difluoro-[1,1′-biphenyl]-3-yl)methyl)-5-((R)-oxetane-2-carbonyl)-5-azaspiro[2.4]heptan-7-yl)methanesulfonamide], the EC50 was 1 to 10 nM and the maximal effect (Emax) was in the range of 90 to 100%.

For `O=C(NCCF)N1CC2(CC2)[C@H](NS(=O)(=O)CF)[C@@H]1Cc1cccc(-c2ccccc2)c1F` [Compound 367, (6S,7S)-6-((2-fluoro-[1,1′-biphenyl]-3-yl)methyl)-N-(2-fluoroethyl)-7-((fluoromethyl)sulfonamido)-5-azaspiro[2.4]heptane-5-carboxamide], the EC50 was 0.0794 to 1 nM and the Emax was in the range of 90 to 100%.

For the compound `O=C(NCC1(F)CC1)N1CC2(CC2)[C@H](NS(=O)(=O)C(F)F)[C@@H]1Cc1cc(F)cc(-c2ccccc2)c1F` [Compound 417, (6S,7S)-6-(2,5-difluoro-[1,1′-biphenyl]-3-yl)methyl)-7-((difluoromethyl)sulfonamido)-N-((1-fluorocyclopropylmethyl)-5-azaspiro[2.4]heptane-5-carboxamide], the EC50 was 1 to 10 nM and the Emax lay within 90 to 100%.

Take `COC(=O)N1CCC2(CC2)C(NS(C)(=O)=O)C1Cc1cccc(-c2ccccc2)c1` (racemic) [Compound 14, methyl 5-([1,1′-biphenyl]-3-ylmethyl)-4-(methylsulfonamido)-6-azaspiro[2.5]octane-6-carboxylate]: the EC50 is > 1000 nM and the maximal response (Emax) is 90 to 100%.

Turning to `C[C@H](CF)NC(=O)N1CC2(CC2)[C@H](NS(=O)(=O)C(F)F)[C@@H]1Cc1cc(F)cc(-c2ccccc2)c1F` [Compound 388, (6S,7S)-6-((2,5-difluoro-[1,1′-biphenyl]-3-yl)methyl)-7-((difluoromethyl)sulfonamido)-N-((R)-1-fluoropropan-2-yl)-5-azaspiro[2.4]heptane-5-carboxamide], the EC50 is 1 to 10 nM and the Emax lay within 90 to 100%.

In the case of `CS(=O)(=O)N[C@@H]1[C@H](Cc2cccc(-c3ccccc3)c2F)N(C(=O)NCCC#N)CC12CC2` [Compound 330, (6S,7S)-N-(2-cyanoethyl)-6-((2-fluoro-[1,1′-biphenyl]-3-yl)methyl)-7-(methylsulfonamido)-5-azaspiro[2.4]heptane-5-carboxamide], the EC50 was 1 to 10 nM and the Emax lay in the range of 90 to 100%.

For `CC(C)C(=O)N1CC2(CC2)[C@H](NS(C)(=O)=O)[C@@H]1Cc1cccc(-c2ccccc2F)c1` (racemic) [Compound 297], the EC50 was 1 to 10 nM and the Emax was 90 to 100%.

On to `CS(=O)(=O)NC1C(Cc2cccc(-c3ccccc3)c2F)N(C(=O)[C@H]2C[C@@H](F)C2)CC12CC2` (mixture of isomers) [Compound 91, N-(6-((2-fluoro-[1,1′-biphenyl]-3-yl)methyl)-5-((1s,3s)-3-fluorocyclobutane-1-carbonyl)-5-azaspiro[2.4]heptan-7-yl)methanesulfonamide], for which the EC50 is 10 to 100 nM and the maximal effect (Emax) lay within 90 to 100%.

With `O=C([C@H]1CCO1)N1CC2(CC2)[C@H](NS(=O)(=O)C(F)F)[C@@H]1Cc1cccc(-c2ccccc2F)c1F` [Compound 163, N-((6S,7S)-6-((2,2′-difluoro-[1,1′-biphenyl]-3-yl)methyl)-5-((R)-oxetane-2-carbonyl)-5-azaspiro[2.4]heptan-7-yl)-1,1-difluoromethanesulfonamide], the EC50 is 1 to 10 nM and the Emax fell in the range of 90 to 100%.

Consider `O=C(NC[C@@H]1CCO1)N1CC2(CC2)[C@H](NS(=O)(=O)CF)[C@@H]1Cc1cccc(-c2ccccc2)c1F` [Compound 374, (6S,7S)-6-((2-fluoro-[1,1′-biphenyl]-3-yl)methyl)-7-((fluoromethyl)sulfonamido)-N-(((S)-oxetan-2-yl)methyl)-5-azaspiro[2.4]heptane-5-carboxamide], for which the EC50 is 1 to 10 nM and the Emax is 90 to 100%.

Regarding `CC(F)(F)C(=O)N1CC2(CC2)[C@H](NS(C)(=O)=O)[C@@H]1Cc1cccc(-c2cccc(F)c2)c1F` [Compound 294, N-((6S,7S)-6-((2,3'-difluoro-[1,1′-biphenyl]-3-yl)methyl)-5-(2,2-difluoropropanoyl)-5-azaspiro[2.4]heptan-7-yl)methanesulfonamide], the EC50 was 10 to 100 nM and the Emax was 80 to 90%.

`COc1c(C[C@H]2[C@@H](NS(C)(=O)=O)C3(CC3)CN2C(=O)C2CC(F)C2)cccc1-c1ccccc1` (stereo partly drawn) [Compound 339, N-((6S,7S)-5-(3-fluorocyclobutane-1-carbonyl)-6-((2-methoxy-[1,1′-biphenyl]-3-yl)methyl)-5-azaspiro[2.4]heptan-7-yl)methanesulfonamide]: the “hOx2 pEC50” value was “*** (pEC50 ranging between 7.0 and 8.0)”; the Emax fell in the range of 70 to 80%.

`CS(=O)(=O)NC1C(Cc2cccc(-c3ccccc3)c2F)N(C(=O)N2CCC2)CC12CC2` (racemic) [Compound 18, N-(5-(azetidine-1-carbonyl)-6-((2-fluoro-[1,1′-biphenyl]-3-yl)methyl)-5-azaspiro[2.4]heptan-7-yl)methanesulfonamide]: the EC50 is 1 to 10 nM and the maximal response (Emax) lay in the range of 90 to 100%.

As to “(6S,7S)-6-(2,5-difluoro-[1,1′- biphenyl]-3-yl)methyl)-7- ((difluoromethyl)sulfonamido)- N-((S)-1-fluoroethyl)-5- azaspiro[2.4]heptane-5- carboxamide [Compound 216]”, the “hOx2 Emax (%)” value is “A (Emax ranging between 90 and 100)”; the “hOx2 pEC50” value was “**** (pEC50 ranging between 8.0 and 9.0)”.

For `O=C([C@H]1CCO1)N1CC2(CC2)[C@H](NS(=O)(=O)C2(F)CC2)[C@@H]1Cc1cccc(-c2ccccc2)c1F` [Compound 420, 1-fluoro-N-((6S,7S)-6-((2-fluoro-[1,1′-biphenyl]-3-yl)methyl)-5-((R)-oxetane-2-carbonyl)-5-azaspiro[2.4]heptan-7-yl)cyclopropane-1-sulfonamide], the EC50 is 0.0794 to 1 nM and the maximum response (Emax) lay within 90 to 100%.

On to `O=C(NCC(F)(F)F)N1CC2(CC2)[C@H](NS(=O)(=O)C(F)F)[C@@H]1Cc1cc(F)cc(-c2ccccc2)c1F` [Compound 383, (6S,7S)-6-((2,5-difluoro-[1,1′-biphenyl]-3-yl)methyl)-7-((difluoromethyl)sulfonamido)-N-(2,2,2-trifluoroethyl)-5-azaspiro[2.4]heptane-5-carboxamide], for which the EC50 is 1 to 10 nM and the Emax was 90 to 100%.

Consider `N#CC1(C(=O)N2CC3(CC3)[C@H](NS(=O)(=O)CF)[C@@H]2Cc2cc(F)cc(-c3ccccc3)c2F)CCC1` [Compound 413, N-((6S,7S)-5-(1-cyanocyclobutane-1-carbonyl)-6-((2,5-difluoro-[1,1′-biphenyl]-3-yl)methyl)-5-azaspiro[2.4]heptan-7-yl)-1-fluoromethanesulfonamide], for which the EC50 is 0.0794 to 1 nM and the maximal response (Emax) lay in the range of 90 to 100%.

On to `O=C([C@H](O)CF)N1CC2(CC2)[C@H](NS(=O)(=O)CF)[C@@H]1Cc1cc(F)cc(-c2ccccc2)c1F` [Compound 190, N-((6S,7S)-6-((2,5-difluoro-[1,1′-biphenyl]-3-yl)methyl)-5-((S)-3-fluoro-2-hydroxypropanoyl)-5-azaspiro[2.4]heptan-7-yl)-1-fluoromethanesulfonamide], for which the EC50 is 1 to 10 nM and the maximum response (Emax) fell in the range of 90 to 100%.

Turning to `N#CC1(C(=O)N2CC3(CC3)[C@H](NS(=O)(=O)C(F)F)[C@@H]2Cc2cccc(-c3cc(F)cc(F)c3)c2F)CCC1` [Compound 381, N-((6S,7S)-5-(1-cyanocyclobutane-1-carbonyl)-6-((2,3′,5′-trifluoro-[1,1′-biphenyl]-3-yl)methyl)-5-azaspiro[2.4]heptan-7-yl)-1,1-difluoromethanesulfonamide], the EC50 is 1 to 10 nM and the Emax is 90 to 100%.

Turning to `CS(=O)(=O)N[C@@H]1[C@H](Cc2cccc(-c3ccccc3)c2)N(C(=O)C2CCC2)CC12CC2` (racemic) [Compound 302, N-(-6-([1,1′-biphenyl]-3-ylmethyl)-5-(cyclobutanecarbonyl)-5-azaspiro[2.4]heptan-7-yl)methanesulfonamide], the EC50 was 1 to 10 nM and the Emax lay within 90 to 100%.

`CC(C)(O)C(=O)N1CC2(CC2)[C@H](NS(=O)(=O)C(F)F)[C@@H]1Cc1cccc(-c2cc(F)cc(F)c2)c1F` [Compound 195, 1,1-difluoro-N-((6S,7S)-5-(2-hydroxy-2-methylpropanoyl)-6-((2,3′,5′-trifluoro-[1,1′-biphenyl]-3-yl)methyl)-5-azaspiro[2.4]heptan-7-yl)methanesulfonamide]: the EC50 was 1 to 10 nM and the Emax was 90 to 100%.

With `COc1c(C[C@H]2[C@@H](NS(C)(=O)=O)C3(CC3)CN2C(=O)NCC(F)(F)F)cccc1-c1ccccc1` [Compound 343, (6S,7S)-6-((2-methoxy-[1,1′-biphenyl]-3-yl)methyl)-7-(methylsulfonamido)-N-(2,2,2-trifluoroethyl)-5-azaspiro[2.4]heptane-5-carboxamide], the EC50 was 10 to 100 nM and the maximum response (Emax) lay in the range of 70 to 80%.
